# “Also recorded” adds a separate entry of the source.
# Key:
# in vivo = assay: in vivo
# Text: Overview: The purpose of this study was to evaluate the safety and pharmokinetic profile of Torisel® and dexamethasone when delivered in an exaggerated dose to peripheral vasculature in a porcine model of balloon overstretch artery stenosis.
# Methods: Four juvenile porcine subjects were used on this study to assess tissue safety and pharmacokinetic profile. The animals received femoral artery injury induced via oversizing a balloon (˜20-30% overstretch). Three animals received subsequent treatment with the Bullfrog® catheter of Torisel® (2 mg/mL) with dexamethasone (6 mg/mL) and contrast medium (20%) into the adventitia and perivascular tissue around the peripheral arteries. The fourth animal received subsequent treatment with the Bullfrog® catheter of saline and contrast medium (20%) into the adventitia and perivascular tissue around the peripheral arteries. Blood samples were taken at baseline, and post-implant 20 minutes, 1 hour, 4 hours, 24 hours, 3 days, 7 days, and just prior to termination for pharmacokinetic assessment. […] The other three animals were survived for 14 days. At day 14, blood was collected, animals were euthanized and a necropsy was performed.
# human aortic VSMCs [1] = conditions: 12 hours; for LDH release (necrosis and cytolysis): increasing drug concentrations, with or without 50 nM dexamethasone, FIG. 18A-C; for necrotic cytotoxicity (LDH): single drug or 500 nM TEM or PAC with DEX 10, 50, 500 nM, FIG. 19C
# Description: At harvest, plates were centrifuged at 800 rpm in a clinical centrifuge, and supernatant was carefully removed and assayed for lysed cells by measuring the LDH released into the culture media by ELISA, according to manufacturer instructions. Absorbance readings were taken using a microtiter plate reader (Tecan). […] Data in FIG. 18A represent the LDH release in the presence of increasing concentrations of sirolimus or sirolimus+50 nM dexamethasone. […] Data represent the average of 9 replicate wells per condition and error bars represent the standard deviation of the 9 replicates.
# Treated cells were then incubated for 12 hours. At harvest, plates were centrifuged at 800 rpm in a clinical centrifuge, and supernatant was carefully removed and assayed for LDH by ELISA according to manufacturer instructions. Absorbance readings were taken using a microtiter plate reader (Tecan). Data represent the average absorbance readings. Error bars represent the standard deviation amongst replicates.
# human aortic VSMCs [2] = assay: Apoptosis by Caspase 3 ELISA in drug-treated VSMCs; conditions: 12 hours; for apoptosis (Caspase 3 activation): increasing drug concentrations, with or without 50 nM dexamethasone, FIG. 17A-C
# Description: At harvest, cells were gently lysed and a Caspase 3 ELISA was performed (Cell Signaling Technologies, Cat #7190). Absorbance readings were taken using a microtiter plate reader (Tecan). […] Data represent the average of 9 replicate wells per condition and error bars represent the standard deviation of the 9 replicates. Baseline levels of VSMC apoptosis were obtained using vehicle controls and values were set to zero. The percent change in apoptosis in the presence of drug was determined from baseline (FIG. 17A-C).
# Cells were then incubated for 12 hours. At harvest, plates were centrifuged at 800 rpm in a clinical centrifuge, and supernatant was carefully removed. Cells were then fixed and permeabilized and assayed for cytoplasmic caspase 3 levels by ELISA, according to manufacturer instructions (Cell Signaling Technologies). Absorbance readings were taken using a microtiter plate reader (Tecan). Data represent the average absorbance readings. Error bars represent the standard deviation amongst replicates.
# human aortic VSMCs [3] = assay: MTT metabolic activity / proliferation of PDGF-stimulated VSMCs; type: cell-based; conditions: PDGF 10 ng/mL; for inhibitory activity in the MTT assay: Example 11, 1 nM to 100 μM for 12 hours; for inhibition of metabolic activity and proliferation (MTT assay): drug 0, 1, 10, 100, 500 nM, with or without 50 nM dexamethasone, FIGS. 14A-C
# Description: Drug-specific effects on cellular metabolic activity, pro-inflammatory cytokine production and cytotoxicity were examined. As a cytotoxic control for disruption of metabolic activity, we used actinomycin D (100 ng/mL or […]). As a negative control, vehicle (5% (v/v) sterile DMSO in saline) was used. Following an 8 hour incubation in the presence of drug and stim (PDGF), MTT substrate was added and incubated for an additional 4 hrs prior to measurement. […] Data represent the average absorbance readings.
# After 8 h incubation, MTT substrate was added and incubated for an additional 4 hrs prior to measurement (T=12 hours). […] Data represent the average absorbance readings. […] FIG. 19A presents the percent of inhibition that was identified in the presence of single or combination drugs. Low doses of all drugs, administered individually, had minimal inhibitory properties, as compared to high dose of each drug.
# (§1) A study was performed to assess the ability of a range of drug or drug combinations to induce cytotoxicity in PDGF-stimulated aortic smooth muscle and endothelial cells in vitro. […] Utilizing protocols for EC and VSMC stimulation mediated by the growth factor, PDGF, cells were incubated in drug at concentration ranges from 0, 1, 10, 100 nM, 1, 10, 100 μM for 12 hours prior to assessment for cellular activation and cytotoxicity. Prior to harvest, BrdU was added to each well for 6 hours for DNA incorporation. […] Data represent the average absorbance readings. […] Cellular activation was monitored by metabolic activity and cellular proliferation. Metabolic activity was measured using the MTT assay to monitor enzyme-dependent metabolite production while proliferation was measured using 5-bromo-2′-deoxyuridine (BrdU) ELISA to monitor DNA synthesis.
# [4] = system: TNFα production of human aortic VSMCs; assay: TNFα ELISA of supernatant of PDGF-stimulated VSMCs; type: cell-based; conditions: for PDGF-induced TNFα levels: 48 h, single drug 0, 10, 50, 500 nM, or 500 nM TEM or PAC with DEX 10, 50, 500 nM, FIG. 19E
# Description: Following a 48 hour incubation in the presence of drug and stimulant (PDGF), 50 uL of supernatant from each well was collected and ELISAs were performed to measure TNFα levels. Pro-inflammatory cytokine expression was examined under these conditions by measuring TNFα levels in cell supernatant after 48 h by enzyme-linked immunoassay (ELISA; Peprotech #900-T16, #900-T25).
# [5] = system: IL6 cytokine production of human aortic VSMCs; assay: IL6 ELISA of supernatant of PDGF-stimulated VSMCs; type: cell-based; conditions: for PDGF-induced IL6 levels: 48 h, single drug 0, 10, 50, 500 nM, or 500 nM TEM or PAC with DEX 10, 50, 500 nM, FIG. 19D
# Description: Following a 48 hour incubation in the presence of drug and stimulant (PDGF), 50 uL of supernatant from each well was collected and ELISAs were performed to measure IL6 levels. Pro-inflammatory cytokine expression was examined under these conditions by measuring IL6 levels in cell supernatant after 48 h by enzyme-linked immunoassay (ELISA; Peprotech #900-T16, #900-T25).
# human aortic VSMCs [6] = assay: BrdU ELISA proliferation of PDGF-stimulated VSMCs; type: cell-based; conditions: Example 11; 1 nM to 100 μM for 12 hours; PDGF 10 ng/mL; compared to vehicle control and actinomycin D; FIG. 20
# Description: as §1
# [7] = Example 13 porcine study: blood and tissue pharmacokinetics
# Description: (§2) Methods. Twelve animals were evaluated for tissue safety and pharmacokinetic blood and tissue profiles. The animals received vessel injury induced via oversizing a balloon at ˜20-30% overstretch, then receiving subsequent Bullfrog® catheter delivery of 4 mg/mL Torisel® or saline placebo control into the adventitia and perivascular tissue around the coronary and femoral arteries. Blood samples for pharmacokinetic analysis were taken at 5 minutes, 30 minutes, 1 hour, 24 hours, 72 hours, 7 Days, 28 Days, and termination. Animals were terminated at 90 days. Gross examination of all treated tissues and surrounding structures was performed. […] Histological analysis was performed on all other collected arterial tissues.
# [8] = set-up: species or system swine; conditions: pig, in vivo
# Description: The study design included a total of eleven (11) animals; 8 of which received angioplasty overstretch followed by single dose of test article in bilateral superficial femoral arteries administered for a total in-life phase of 1 hour (n=2), 3 days (n=2), 7 days (n=2) and 28 days (n=2) and three additional animals that served as control by undergoing angioplasty overstretch followed by infusion of saline and surviving for 3 days (n=1), 7 days (n=1) and 28 days (n=1). A carotid artery access was utilized for all interventional procedures. […] Animals survived to 1 hour (n=2), 3 days (n=2), 7 days (n=2) and 28 days (n=2), for detailed histopathology and safety evaluation. Following survival to the designated endpoint, animals underwent blood collection, then were euthanized and necropsied followed by histological examination.
# A prospective study of a single dose (357 μg in 1.5 ml) of adventitially delivered study drug (Torisel®) was conducted. All doses contained 50% contrast medium for distribution tracking. Each pig received bilateral injections in the mid femoral region. 2 pigs each were sacrificed at 1 hour, 3 days, 7 days and 28 days, for a total of 8 pigs. […] 3 pigs were used as control in which treatment sites were subjected to overstretch injury followed by infusion of saline via the Mercator Bullfrog® catheter and sacrificed at 3 days, 7 days or 28 days (1 pig at each time point). […]
# [9] = dosage of 4 mg/mL temsirolimus
# Description: as §2
# external iliac arteries = assay: Example 15 WHHL rabbit model of balloon overstretch artery stenosis: histopathology; type: in vivo, Watanabe heritable hyperlipidemic (WHHL) rabbit; conditions: relative to dexamethasone alone or vehicle group
# Description: Overview. A rabbit study was performed to evaluate the tissue effect of Torisel® (Tem) and dexamethasone (Dex) when delivered as combined or alone to peripheral vasculature in a Watanabe heritable hyperlipidemic (WHHL) rabbit model of balloon overstretch artery stenosis. Each animal was subject to balloon angioplasty and treatment in each of the two (2) external iliac arteries. Four subjects were assigned to each of three groups: Torisel®, dexamethasone, or combination. Three subjects were assigned to each of two groups: control (vehicle delivery) or balloon only. Two New Zealand white rabbits were assigned to treatment with balloon only in one iliac and were naïve to any treatment in the other iliac.
# Methods. Twenty animals were evaluated for tissue effect of peri-vascular injection of test and control articles. […] The animals received vessel injury induced via oversizing a balloon (˜20-30% overstretch). Animals were divided into the six groups with varying balloon injury targets and various combinations of test and control articles. The test and control articles were injected into the peri-vascular tissue using the Bullfrog® catheter. Animals were recovered and survived for ˜28 days. At ˜28 days, animals were sacrificed, a gross pathology performed and tissue harvested for histopathology analysis.
compound,measurement,setting,value
C[C@@H]1C[C@H]2[C@@H]3CCC4=CC(=O)C=C[C@]4(C)[C@@]3(F)[C@@H](O)C[C@]2(C)[C@@]1(O)C(=O)CO [dexamethasone],dexamethasone levels in plasma at the 24-hour time point and after,"in vivo; pig, in vivo",below LLOQ
same,tissue levels at 14 days,"in vivo; pig, in vivo",below LLOQ
same,LDH release (necrosis and cytolysis),human aortic VSMCs [1],suppressed LDH release compared to vehicle
same,necrotic cytotoxicity (LDH),human aortic VSMCs [1],not observed
same,apoptosis (Caspase 3 activation),human aortic VSMCs [2],did not induce significant apoptosis
CC(=O)O[C@H]1C(=O)[C@@]2(C)[C@H]([C@H](OC(=O)c3ccccc3)[C@]3(O)C[C@H](OC(=O)[C@H](O)[C@@H](NC(=O)c4ccccc4)c4ccccc4)C(C)=C1C3(C)C)[C@]1(OC(C)=O)CO[C@@H]1C[C@@H]2O [paclitaxel],inhibitory activity in the MTT assay,human aortic VSMCs [3],at higher concentrations had inhibitory activity
same,inhibition of metabolic activity and proliferation (MTT assay),human aortic VSMCs [3],at higher concentrations had inhibitory activity
same,PDGF-induced TNFα levels,[4],dose-dependent upregulation
same,TNFα production,"[4]; 48 hour incubation, increasing drug concentrations, with or without 50 nM dexamethasone, FIGS. 15A-C",activated pro-inflammatory cytokine expression; also recorded: induced IL6 and TNFα production by SMCs at all doses tested; also recorded: increased steadily
same,PDGF-induced IL6 levels,[5],dose-dependent upregulation
same,IL6 production,"[5]; 48 hour incubation, increasing drug concentrations, with or without 50 nM dexamethasone, FIGS. 16A-C",induced IL6 and TNFα production by SMCs at all doses tested; also recorded: no significant change in IL6 levels between 50 and 500 nM
same,inhibition of BrdU incorporation (cellular proliferation),human aortic VSMCs [6],approached the degree of inhibition of actinomycin D
same,LDH release (necrosis and cytolysis),human aortic VSMCs [1],dose-dependent relationship
same,necrotic cytotoxicity (LDH),human aortic VSMCs [1],demonstrated necrotic cytotoxicity
same,average increase in apoptosis from vehicle baseline,"human aortic VSMCs [2]; Caspase 3 ELISA, vehicle baseline set to zero",≤ 173%
same,apoptosis (Caspase 3 activation),human aortic VSMCs [2],induced in a dose-dependent manner
same,apoptosis (cytoplasmic caspase 3) compared to vehicle control,"human aortic VSMCs [2]; single drug or 500 nM TEM or PAC with DEX 10, 50, 500 nM, FIG. 19B",promote apoptosis (lack of inhibition)
CO[C@H]1C[C@@H]2CC[C@@H](C)[C@@](O)(O2)C(=O)C(=O)N2CCCC[C@H]2C(=O)O[C@H]([C@H](C)C[C@@H]2CC[C@@H](O)[C@H](OC)C2)CC(=O)[C@H](C)/C=C(\C)[C@@H](O)[C@@H](OC)C(=O)[C@H](C)C[C@H](C)/C=C/C=C/C=C/1C [sirolimus],relation of observed blood concentrations to dose,[7]; 52 mg versus 5.2 mg Torisel,proportional to dose
same,homogenized vascular tissue levels,[7]; termination at 90 days,all below LLOQ
same,whole blood levels at 28 days and at termination,[7]; termination at 90 days,below LLOQ
same,"whole blood levels, time course","[7]; up to 52 mg or 5.2 mg Torisel, perivascular, coronary and peripheral arteries","peaked at early time points, declined over time to Day 7"
CO[C@H]1C[C@@H]2CC[C@@H](C)[C@@](O)(O2)C(=O)C(=O)N2CCCC[C@H]2C(=O)O[C@H]([C@H](C)C[C@@H]2CC[C@@H](OC(=O)C(C)(CO)CO)[C@H](OC)C2)CC(=O)[C@H](C)/C=C(\C)[C@@H](O)[C@@H](OC)C(=O)[C@H](C)C[C@H](C)/C=C/C=C/C=C/1C [temsirolimus],inhibitory activity in the MTT assay,human aortic VSMCs [3],at higher concentrations had inhibitory activity
same,inhibition of metabolic activity and proliferation (MTT assay),human aortic VSMCs [3],at higher concentrations had inhibitory activity
same,PDGF-induced TNFα levels,[4],dose-dependent reduction
same,PDGF-induced IL6 levels,[5],dose-dependent reduction
same,inhibition of BrdU incorporation (cellular proliferation),human aortic VSMCs [6],approached the degree of inhibition of actinomycin D
same,time post-dosing up to which drug was measured in the local vascular tissue,[8],up to 28 days
same,relation of observed blood concentrations to dose,"[7]; pig, in vivo",proportional to dose
same,whole blood levels at 28 days and at termination,"[7]; pig, in vivo",below LLOQ
same,mineralization in tissues,[9],not previously seen
same,"temsirolimus levels in the blood, time course","in vivo; Torisel 2 mg/mL with dexamethasone 6 mg/mL, perivascular, peripheral arteries","peaked at early time points, declined over time to 7 days"
same,temsirolimus levels in the blood at termination,in vivo; day 14,below the lower limit of quantitation (LLOQ)
same,level in homogenized vascular tissue at term,"in vivo; day 14, one value per test animal",97.5 ng/g
same,"level in vascular tissue at term, molar equivalent","in vivo; day 14, printed as equivalent",94.7 nM
same,concentration at 14 days,"in vivo; pig, in vivo, level in homogenized vascular tissue at term, day 14, one value per test animal",50.3 ng/g
same,concentration at 14 days,"in vivo; pig, in vivo, level in vascular tissue at term, molar equivalent, day 14, printed as equivalent",48.8 nM
same,% HHF-35 positive intimal/medial area (marker of vascular smooth muscle cell viability),external iliac arteries,smaller
